# In patent US20060069132A1, “Azolecarboxamide herbicides” (priority 2004, published 2006):
# How the values were obtained:
# barnyardgrass [1] = assay: Test B pre-/postemergence herbicide test; format: in vivo, Echinochloa crus-galli; settings: for Barnyardgrass plant response rating: postemergence, visual rating, scale 0 (no effect) to 100 (complete control)
# Outline: (§1)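 Test chemicals in a non-phytotoxic solvent mixture with surfactant were applied preemergence to seeded species and postemergence to plants 2-18 cm tall (1- to 4-leaf stage); rice and barnyardgrass were also tested in a flooded paddy at the 2-leaf stage. Visual rating versus controls after 13-15 days in greenhouse, scale 0 (no effect) to 100 (complete control).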
# Surinam grass = assay: Test B pre-/postemergence herbicide test; format: in vivo, Urochloa decumbens; settings: for Surinam Grass plant response rating: postemergence, visual rating, scale 0 (no effect) to 100 (complete control)
# Outline: (§2)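 Greenhouse pot assay with simultaneous preemergence (treated seed) and postemergence (2–18 cm seedlings) applications of surfactant-containing, non-phytotoxic solvent formulations. Response scored visually 13–15 days later on a 0–100 scale, 100 meaning complete control.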
# cocklebur = assay: Test B pre-/postemergence herbicide test; format: in vivo, Xanthium strumarium; settings: for Cocklebur plant response rating: postemergence, visual rating, scale 0 (no effect) to 100 (complete control)
# Outline: as §1
# corn = assay: Test B pre-/postemergence herbicide test; format: in vivo, Zea mays; settings: for Corn plant response rating: postemergence, visual rating, scale 0 (no effect) to 100 (complete control)
# Outline: as §2
# large crabgrass = assay: Test B pre-/postemergence herbicide test; format: in vivo, Digitaria sanguinalis; settings: for Crabgrass, Large plant response rating: postemergence, visual rating, scale 0 (no effect) to 100 (complete control)
# Outline: as §2
# giant foxtail = assay: Test B pre-/postemergence herbicide test; format: in vivo, Setaria faberi; settings: for Foxtail, Giant plant response rating: postemergence, visual rating, scale 0 (no effect) to 100 (complete control)
# Outline: as §2
# lambsquarters = assay: Test B pre-/postemergence herbicide test; format: in vivo, Chenopodium album; settings: for Lambsquarters plant response rating: postemergence, visual rating, scale 0 (no effect) to 100 (complete control)
# Outline: as §2
# morningglory = assay: Test B pre-/postemergence herbicide test; format: in vivo, Ipomoea coccinea; settings: for Morningglory plant response rating: postemergence, visual rating, scale 0 (no effect) to 100 (complete control)
# Outline: as §1
# pigweed = assay: Test B pre-/postemergence herbicide test; format: in vivo, Amaranthus retroflexus; settings: for Pigweed plant response rating: postemergence, visual rating, scale 0 (no effect) to 100 (complete control)
# Outline: as §2
# rice [2] = assay: Test B pre-/postemergence herbicide test; format: in vivo, Oryza sativa; settings: preemergence
# Outline: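 Species tested were Echinochloa crus-galli, Ipomoea coccinea, Xanthium strumarium and Oryza sativa, treated both before emergence and at the 1- to 4-leaf stage; rice and barnyardgrass were also tested under flooding at 2 leaves. Greenhouse incubation lasted 13–15 days before visual 0–100 scoring.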
# velvetleaf = assay: Test B pre-/postemergence herbicide test; format: in vivo, Abutilon theophrasti; settings: for Velvetleaf plant response rating: postemergence, visual rating, scale 0 (no effect) to 100 (complete control)
# Outline: as §2
# blackgrass = assay: Test B postemergence herbicide test; format: in vivo, Alopecurus myosuroides; settings: postemergence, visual rating, scale 0 (no effect) to 100 (complete control)
# Outline: (§3)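 Paddy species grown to the 2-leaf stage under flooding; blackgrass sprayed postemergence at 2–18 cm (1- to 4-leaf stage). Plants kept in a greenhouse for 13 to 15 days, then visually rated against controls on 0 (no effect) to 100 (complete control).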
# wheat = assay: Test B postemergence herbicide test; format: in vivo, Triticum aestivum; design: key to Wheat plant response rating: 0 = no effect, 100 = complete control; settings: postemergence, visual rating, scale 0 (no effect) to 100 (complete control)
# Outline: (§4)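 Read-out: visual comparison with controls, scored 0 to 100, where 100 means complete control and 0 no effect. Formulated chemicals were applied postemergence to plants 2–18 cm tall (1- to 4-leaf), or to flooded-paddy plants at the 2-leaf stage, then held 13 to 15 days under glass.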
# wild oat = assay: Test B postemergence herbicide test; format: in vivo, Avena fatua; settings: postemergence, visual rating, scale 0 (no effect) to 100 (complete control)
# Outline: as §4
# rice [3] = assay: Test B flooded paddy test; format: in vivo, Oryza sativa; settings: 1000 g ai/ha, visual rating, scale 0 to 100 (0 no effect, 100 complete control), 13 to 15 days
# Outline: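 Greenhouse test; postemergence application to plants at 1–4 leaves (2–18 cm); paddy species at 2 leaves; evaluated visually vs controls at 13–15 days; scale 0–100 (100 = complete control).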
# [4] = test system: small flower umbrella sedge; assay: Test B flooded paddy test; format: in vivo, Cyperus difformis; settings: 1000 g ai/ha, visual rating, scale 0 to 100 (0 no effect, 100 complete control), 13 to 15 days
# Outline: as §3
# ducksalad [5] = assay: Test B flooded paddy test; format: in vivo, Heteranthera limosa; settings: 1000 g ai/ha, visual rating, scale 0 to 100 (0 no effect, 100 complete control), 13 to 15 days
# Outline: as §3
# barnyardgrass [6] = assay: Test B flooded paddy test; format: in vivo, Echinochloa crus-galli; settings: 1000 g ai/ha, visual rating, scale 0 to 100 (0 no effect, 100 complete control), 13 to 15 days
# Outline: as §3
# rice [7] = assay: Test C flooded paddy test; format: in vivo, Oryza sativa
# Outline: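 Postemergence sprays applied to plants 2 to 18 cm tall (1- to 4-leaf stage); paddy species grown to 2-leaf stage under flooding. After 12 to 14 days in greenhouse, visual rating versus untreated controls on 0–100 scale (0 no effect, 100 complete control).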
# [8] = test system: smallflower umbrella sedge; assay: Test C flooded paddy test; format: in vivo, Cyperus difformis
# ducksalad [9] = assay: Test C flooded paddy test; format: in vivo, Heteranthera limosa
# barnyardgrass [10] = assay: Test C flooded paddy test; format: in vivo, Echinochloa crus-galli
# Outline: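 Postemergence sprays were applied to plants 2 to 18 cm tall (1- to 4-leaf stage); in the flooded paddy test, barnyardgrass was grown to the 2-leaf stage. After 12 to 14 days in a greenhouse, injury was visually rated against untreated controls on a 0–100 scale (100 = complete control).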
# [11] = 125 g ai/ha, 0 = no effect, 100 = complete control, preemergence
# [12] = 500 g ai/ha, visual rating 0-100, 0 no effect, 100 complete control, preemergence
# [13] = 62 g ai/ha, scale 0 to 100 (0 no effect, 100 complete control)
# [14] = 125 g ai/ha, scale 0 to 100 (0 no effect, 100 complete control)
# [15] = 250 g ai/ha, scale of 0 to 100, 0 is no effect, 100 is complete control
# [16] = 500 g ai/ha, visual rating after 12 to 14 days, scale 0 to 100 (0 no effect, 100 complete control)
compound,measurement,setting,value
CCNC(=O)c1cccc(NC(=O)c2cn(C(C)(C)C)nc2CC)c1 [Compound 181],Barnyardgrass plant response rating (0 to 100 scale),barnyardgrass [1]; [11],30
same,"Plant response rating, Barnyardgrass",barnyardgrass [1]; [12],90
same,Barnyardgrass plant response rating,barnyardgrass [1]; 125 g ai/ha,0
same,Barnyardgrass plant response rating,barnyardgrass [1]; 500 g ai/ha,10
same,Surinam Grass plant response rating (0 to 100 scale),Surinam grass; [11],30
same,"Plant response rating, Surinam Grass",Surinam grass; [12],70
same,Surinam Grass plant response rating,Surinam grass; 125 g ai/ha,20
same,Surinam Grass plant response rating,Surinam grass; 500 g ai/ha,20
same,Cocklebur plant response rating (0 to 100 scale),cocklebur; [11],10
same,"Plant response rating, Cocklebur",cocklebur; [12],20
same,Cocklebur plant response rating,cocklebur; 125 g ai/ha,20
same,Cocklebur plant response rating,cocklebur; 500 g ai/ha,70
same,Corn plant response rating (0 to 100 scale),corn; [11],0
same,"Plant response rating, Corn",corn; [12],40
same,Corn plant response rating,corn; 125 g ai/ha,20
same,Corn plant response rating,corn; 500 g ai/ha,20
same,"Crabgrass, Large plant response rating (0 to 100 scale)",large crabgrass; [11],50
same,"Plant response rating, Crabgrass, Large",large crabgrass; [12],100
same,"Crabgrass, Large plant response rating",large crabgrass; 125 g ai/ha,10
same,"Crabgrass, Large plant response rating",large crabgrass; 500 g ai/ha,20
same,"Foxtail, Giant plant response rating (0 to 100 scale)",giant foxtail; [11],20
same,"Plant response rating, Foxtail, Giant",giant foxtail; [12],100
same,"Foxtail, Giant plant response rating",giant foxtail; 125 g ai/ha,20
same,"Foxtail, Giant plant response rating",giant foxtail; 500 g ai/ha,20
same,Lambsquarters plant response rating (0 to 100 scale),lambsquarters; [11],50
same,"Plant response rating, Lambsquarters",lambsquarters; [12],100
same,Lambsquarters plant response rating,lambsquarters; 125 g ai/ha,70
same,Lambsquarters plant response rating,lambsquarters; 500 g ai/ha,90
same,Morningglory plant response rating (0 to 100 scale),morningglory; [11],0
same,"Plant response rating, Morningglory",morningglory; [12],20
same,Morningglory plant response rating,morningglory; 125 g ai/ha,20
same,Morningglory plant response rating,morningglory; 500 g ai/ha,20
same,Pigweed plant response rating (0 to 100 scale),pigweed; [11],30
same,"Plant response rating, Pigweed",pigweed; [12],100
same,Pigweed plant response rating,pigweed; 125 g ai/ha,40
same,Pigweed plant response rating,pigweed; 500 g ai/ha,90
same,Rice plant response rating (0 to 100 scale),"rice [2]; 125 g ai/ha, 0 = no effect, 100 = complete control",40
same,"Plant response rating, Rice","rice [2]; 500 g ai/ha, visual rating 0-100, 0 no effect, 100 complete control",70
same,Velvetleaf plant response rating (0 to 100 scale),velvetleaf; [11],0
same,"Plant response rating, Velvetleaf",velvetleaf; [12],10
same,Velvetleaf plant response rating,velvetleaf; 125 g ai/ha,10
same,Velvetleaf plant response rating,velvetleaf; 500 g ai/ha,20
same,Blackgrass plant response rating,blackgrass; 125 g ai/ha,0
same,Blackgrass plant response rating,blackgrass; 500 g ai/ha,10
same,Wheat plant response rating,wheat; 125 g ai/ha,0
same,Wheat plant response rating,wheat; 500 g ai/ha,0
same,"Oat, Wild plant response rating",wild oat; 125 g ai/ha,20
same,"Oat, Wild plant response rating",wild oat; 500 g ai/ha,30
same,Rice plant response rating,rice [3],80
same,"Sedge, Umbrella plant response rating",[4],80
same,Ducksalad plant response rating,ducksalad [5],90
same,Barnyardgrass plant response rating,barnyardgrass [6],80
same,Rice plant response rating,rice [7]; [13],0
same,Rice plant response rating,rice [7]; [14],0
same,Rice plant response rating,rice [7]; [15],0
same,"Plant response rating, Rice",rice [7]; [16],0
same,"Sedge, Umbrella plant response rating",[8]; [13],10
same,"Sedge, Umbrella plant response rating",[8]; [14],20
same,"Sedge, Umbrella plant response rating",[8]; [15],80
same,"Plant response rating, Sedge, Umbrella",[8]; [16],85
same,Ducksalad plant response rating,ducksalad [9]; [13],0
same,Ducksalad plant response rating,ducksalad [9]; [14],0
same,Ducksalad plant response rating,ducksalad [9]; [15],0
same,"Plant response rating, Ducksalad",ducksalad [9]; [16],80
same,Barnyardgrass plant response rating,barnyardgrass [10]; [13],0
same,Barnyardgrass plant response rating,"barnyardgrass [10]; 125 g ai/ha, scale of 0 to 100, 0 is no effect, 100 is complete control",0
same,Barnyardgrass plant response rating,barnyardgrass [10]; [15],0
same,"Plant response rating, Barnyardgrass",barnyardgrass [10]; [16],0
